Results from patent US5126337A, “Thiazetoquinoline-3-carboxylic acid derivative and a pharmaceutical composition comprising the same” (priority 1989, dated 1992).
In brackets after ≈: the same amount, converted by molar mass.

How the values were obtained:
[1] = test system: Klebsiella pneumoniae HNR 869; assay: Antibacterial spectrum, MIC by twofold agar dilution method; format: cell-based; conditions: HNR869, 10^6 cfu/ml, clinically isolated strain, Gram -, 18 hrs at 37° C
Description: (§1) Overnight cultures in Mueller-Hinton broth were suspended by buffered saline gelatin. One loopful of the bacterial suspension (10^6 or 10^8 colony-forming units/ml) was incubated onto the plates containing test compounds. The plates were incubated for 18 hrs at 37° C. The MIC was defined by the lowest concentration of the drug that inhibited visible growth of bacteria.

[2] = test system: Klebsiella pneumoniae HNR 828; assay: as above; format: cell-based; conditions: HNR828, 10^6 cfu/ml, clinically isolated strain, Gram -, 18 hrs at 37° C
Description: as §1

[3] = test system: Acinetobacter calcoaceticus HNR 939; assay: as above; format: cell-based; conditions: HNR939, 10^6 cfu/ml, clinically isolated strain, Gram -, 18 hrs at 37° C
Description: as §1

[4] = test system: Enterobacter cloacae HNR 1939; assay: as above; format: cell-based; conditions: HNR1939, 10^6 cfu/ml, clinically isolated strain, Gram -, 18 hrs at 37° C
Description: as §1

[5] = test system: Acinetobacter calcoaceticus HNR 916; assay: as above; format: cell-based; conditions: HNR916, 10^6 cfu/ml, clinically isolated strain, Gram -, 18 hrs at 37° C
Description: as §1

[6] = test system: Serratia marcescens HNR 1544; assay: as above; format: cell-based; conditions: HNR1544, 10^6 cfu/ml, clinically isolated strain, Gram -, 18 hrs at 37° C
Description: as §1

[7] = test system: Pseudomonas aeruginosa HNR 1537; assay: as above; format: cell-based; conditions: HNR1537, 10^6 cfu/ml, clinically isolated strain, Gram -, 18 hrs at 37° C
Description: as §1

[8] = test system: Pseudomonas aeruginosa HNR 1489; assay: as above; format: cell-based; conditions: HNR1489, 10^6 cfu/ml, clinically isolated strain, Gram -, 18 hrs at 37° C
Description: as §1

[9] = test system: Enterobacter cloacae HNR 1941; assay: as above; format: cell-based; conditions: HNR1941, 10^6 cfu/ml, clinically isolated strain, Gram -, 18 hrs at 37° C
Description: as §1

[10] = test system: Enterococcus faecalis HPC 975; assay: as above; format: cell-based; conditions: HPC975, 10^6 cfu/ml, clinically isolated strain, Gram +, 18 hrs at 37° C
Description: as §1

[11] = test system: Enterobacter cloacae HNR 1946; assay: as above; format: cell-based; conditions: HNR1946, 10^6 cfu/ml, clinically isolated strain, Gram -, 18 hrs at 37° C
Description: as §1

[12] = test system: Enterococcus faecalis HPC 984; assay: as above; format: cell-based; conditions: HPC984, 10^6 cfu/ml, clinically isolated strain, Gram +, 18 hrs at 37° C
Description: as §1

[13] = test system: Enterococcus faecalis HPC 948; assay: as above; format: cell-based; conditions: HPC948, 10^6 cfu/ml, clinically isolated strain, Gram +, 18 hrs at 37° C
Description: as §1

[14] = test system: Serratia marcescens HNR 1792; assay: as above; format: cell-based; conditions: HNR1792, 10^6 cfu/ml, clinically isolated strain, Gram -, 18 hrs at 37° C
Description: as §1

[15] = test system: Staphylococuss aureus FDA 209PJC-1; assay: as above; format: cell-based; conditions: 10^6 cfu/ml; standard laboratory strain, Gram +; 18 hrs at 37° C
Description: as §1

[16] = test system: Pseudomonas aeruginosa IFO 3445; assay: as above; format: cell-based; conditions: IFO3445, 10^6 cfu/ml, standard laboratory strain, Gram -, 18 hrs at 37° C
Description: as §1

[17] = test system: Staphylococcuss aureus HPC 527; assay: as above; format: cell-based; conditions: 10^6 cfu/ml; clinically isolated strain, Gram +; 18 hrs at 37° C
Description: as §1

[18] = test system: Enterobacter cloacae 963; assay: as above; format: cell-based; conditions: 10^6 cfu/ml, standard laboratory strain, Gram -, 18 hrs at 37° C
Description: as §1

[19] = test system: Staphylococcuss aureus HPC 292; assay: as above; format: cell-based; conditions: 10^6 cfu/ml; clinically isolated strain, Gram +; 18 hrs at 37° C; read-out: MIC
Description: as §1

[20] = test system: Serratia marcescens IAM 1184; assay: as above; format: cell-based; conditions: IAM1184, 10^6 cfu/ml, standard laboratory strain, Gram -, 18 hrs at 37° C
Description: as §1

[21] = test system: Escherichia coli NIHJ JC-2; assay: as above; format: cell-based; conditions: NIHJJC2, 10^6 cfu/ml, standard laboratory strain, Gram -, 18 hrs at 37° C
Description: as §1

[22] = test system: Klebsiella pneumoniae HNR 858; assay: as above; format: cell-based; conditions: HNR858, 10^6 cfu/ml, clinically isolated strain, Gram -, 18 hrs at 37° C
Description: as §1

[23] = test system: Acinetobacter calcoaceticus HNR 904; assay: as above; format: cell-based; conditions: HNR904, 10^6 cfu/ml, clinically isolated strain, Gram -, 18 hrs at 37° C
Description: as §1

[24] = test system: Serratia marcescens HNR 1767; assay: as above; format: cell-based; conditions: HNR1767, 10^6 cfu/ml, clinically isolated strain, Gram -, 18 hrs at 37° C
Description: as §1

[25] = test system: Male mice of ddY strain; assay: Convulsion inducing activity in combination with fenbufen; conditions: 30 min after fenbufen 100 mg/kg orally
Description: Male mice of ddY strain, 5 weeks old, were used. Fenbufen suspended in 0.5% carboxymethyl cellulose was administered orally at a dose of 100 mg/kg. After thirty minutes, test compounds suspended in 0.5% carboxymethyl cellulose were injected intraperitoneally (i.p.) at a dose of 100 mg/kg or 300 mg/kg.

[26] = test system: Klebsiella pneumoniae PCI-602; assay: Antibacterial spectrum, MIC by twofold agar dilution method; format: cell-based; conditions: PCI602, 10^6 cfu/ml, standard laboratory strain, Gram -, 18 hrs at 37° C, read-out: MIC
Description: as §1, with “Minimum inhibitory concentrations (MIC) of test compounds were determined by the twofold agar dilution method (Chemotherapy, 29(1), 76(1981)). Overnight” for “Overnight”

[27] = test system: Pseudomonas aeruginosa HNR 1472; assay: as above; format: cell-based; conditions: HNR1472, 10^6 cfu/ml, clinically isolated strain, Gram -, 18 hrs at 37° C
Description: as §1

[28] = test system: Staphylococcuss aureus HPC 308; assay: as above; format: cell-based; conditions: 10^6 cfu/ml; clinically isolated strain, Gram +; 18 hrs at 37° C
Description: as §1

Row | Structure (SMILES) | MIC [1] | MIC [2] | MIC [3] | MIC [4] | MIC [5] | MIC [6] | MIC [7] | MIC [8] | MIC [9] | MIC [10] | MIC [11] | MIC [12] | MIC [13] | MIC [15] | MIC [16] | MIC [17] | MIC [18] | MIC [19] | MIC [20] | MIC [21] | other results
1 | CC1Sc2c(C(=O)O)c(=O)c3cc(F)c(N4CCC(N)C4)c(F)c3n21 (stereo not shown) [Example 33, 7-(3-amino-1-pyrrolidinyl)-6,8-difluoro-1-methyl-4-oxo-1H,4H-[1,3] thiazeto[3,2-a]quinoline-3-carboxylic acid] | 0.78 µg/mL (≈ 2.12 µM) | 3.13 µg/mL (≈ 8.52 µM) | 1.56 µg/mL (≈ 4.25 µM) | 0.2 µg/mL (≈ 0.544 µM) | 0.2 µg/mL (≈ 0.544 µM) | 0.05 µg/mL (≈ 0.136 µM) | 12.5 µg/mL (≈ 34 µM) | 0.2 µg/mL (≈ 0.544 µM) | 3.13 µg/mL (≈ 8.52 µM) | 6.25 µg/mL (≈ 17 µM) | 0.2 µg/mL (≈ 0.544 µM) | 0.2 µg/mL (≈ 0.544 µM) | 0.78 µg/mL (≈ 2.12 µM) | 0.025 µg/mL (≈ 0.068 µM) | 0.1 µg/mL (≈ 0.272 µM) | 0.05 µg/mL (≈ 0.136 µM) | 0.05 µg/mL (≈ 0.136 µM) | 6.25 µg/mL (≈ 17 µM) | 0.1 µg/mL (≈ 0.272 µM) | 0.025 µg/mL (≈ 0.068 µM) | MIC [14]: 1.56 µg/mL (≈ 4.25 µM); MIC [22]: 0.2 µg/mL (≈ 0.544 µM); MIC [23]: 25 µg/mL (≈ 68 µM); MIC [24]: 12.5 µg/mL (≈ 34 µM); Number of convulsion induced/Number of animals ([25]; 100 mg/kg (i.p.)): 0/6; Number of convulsion induced/Number of animals ([25]; 300 mg/kg (i.p.)): 0/6
2 | CC1Sc2c(C(=O)O)c(=O)c3cc(F)c(N4CCC(N)C4)c(Cl)c3n21 (stereo not shown) [Example 34, 7-(3-Amino-1-pyrrolidinyl)-8-chloro-6-fluoro-1-methyl-4-oxo-1H,4H-[1,3]thiazeto[3,2-a]quinoline-3-carboxylic acid] | 0.78 µg/mL (≈ 2.03 µM) | 3.13 µg/mL (≈ 8.15 µM) | 1.56 µg/mL (≈ 4.06 µM) | 0.2 µg/mL (≈ 0.521 µM) | 0.1 µg/mL (≈ 0.261 µM) | 0.05 µg/mL (≈ 0.13 µM) | 3.13 µg/mL (≈ 8.15 µM) | 0.2 µg/mL (≈ 0.521 µM) | 1.56 µg/mL (≈ 4.06 µM) | 12.5 µg/mL (≈ 32.6 µM) | 0.2 µg/mL (≈ 0.521 µM) | 0.2 µg/mL (≈ 0.521 µM) | 0.78 µg/mL (≈ 2.03 µM) | 0.05 µg/mL (≈ 0.13 µM) | 0.1 µg/mL (≈ 0.261 µM) | 0.05 µg/mL (≈ 0.13 µM) | 0.025 µg/mL (≈ 0.0651 µM) | 6.25 µg/mL (≈ 16.3 µM) | 0.05 µg/mL (≈ 0.13 µM) | 0.025 µg/mL (≈ 0.0651 µM) | MIC [26]: 0.012 µg/mL (≈ 0.0313 µM); MIC [27]: 3.13 µg/mL (≈ 8.15 µM); MIC [22]: 0.2 µg/mL (≈ 0.521 µM); MIC [24]: 6.25 µg/mL (≈ 16.3 µM); Number of convulsion induced/Number of animals ([25]; 100 mg/kg (i.p.)): 0/6; Number of convulsion induced/Number of animals ([25]; 300 mg/kg (i.p.)): 0/6
3 | CC1Sc2c(C(=O)O)c(=O)c3cc(F)c(N4CC[C@H](N(C)C)C4)c(Cl)c3n21 (stereo partly drawn) [Example 35, 8-Chloro-7-((S)-3-dimethylamino-1-pyrrolidinyl)-6-fluoro-1-methyl-4-oxo-1H,4H-[1,3]thiazeto[3,2-a]quinoline-3-carboxylic acid] | 1.56 µg/mL (≈ 3.79 µM) | 6.25 µg/mL (≈ 15.2 µM) | 1.56 µg/mL (≈ 3.79 µM) | 0.39 µg/mL (≈ 0.947 µM) | 0.1 µg/mL (≈ 0.243 µM) | 0.1 µg/mL (≈ 0.243 µM) | 25 µg/mL (≈ 60.7 µM) | 0.78 µg/mL (≈ 1.89 µM) | 6.25 µg/mL (≈ 15.2 µM) | 12.5 µg/mL (≈ 30.3 µM) | 0.39 µg/mL (≈ 0.947 µM) | 0.39 µg/mL (≈ 0.947 µM) | 1.56 µg/mL (≈ 3.79 µM) | 0.1 µg/mL (≈ 0.243 µM) | 0.78 µg/mL (≈ 1.89 µM) | 0.1 µg/mL (≈ 0.243 µM) | 0.1 µg/mL (≈ 0.243 µM) | 12.5 µg/mL (≈ 30.3 µM) | 0.2 µg/mL (≈ 0.486 µM) | 0.1 µg/mL (≈ 0.243 µM) | MIC [26]: 0.05 µg/mL (≈ 0.121 µM); MIC [27]: 12.5 µg/mL (≈ 30.3 µM); MIC [14]: 3.13 µg/mL (≈ 7.6 µM); MIC [28]: 0.78 µg/mL (≈ 1.89 µM); MIC [22]: 0.39 µg/mL (≈ 0.947 µM); MIC [23]: 3.13 µg/mL (≈ 7.6 µM); MIC [24]: 12.5 µg/mL (≈ 30.3 µM)
